PMC5908160, “Inhibition of sperm motility in male macaques with EP055, a potential non-hormonal male contraceptive” (PLoS ONE, 2018)

Key:
[1] = target: EPPIN (Homo sapiens, UniProt O95925); test: AlphaScreen assay of a-EAb binding to EPPIN; conditions: n = 4, read-out: IC50, inhibition of a-EAb binding to EPPIN
Method: The AlphaScreen® assay was carried as previously described. Briefly, recombinant histidine-tagged recombinant EPPIN was pre-incubated with Ni-NTA chelate donor beads (catalog number AS101, Perkin Elmer, Waltham MA) and anti-Eppin 007 antibody was pre-incubated with Protein A acceptor beads (catalog number 6760136, Perkin Elmer, Waltham MA) for 30 minutes. Equal volumes of donor and acceptor bead mixtures were pipetted into white opaque 384-well microplates (OptiPlate-384; PerkinElmer, Waltham, MA) in a final volume of 30 μL. Plates were covered with top seal and transferred to a Synergy 2 Multiplatform automated plate reader (Biotek, Winooski, VT). After shaking for 2 min, plates were read with an excitation 680/30 filter, an emission 570/100 filter and data acquired using Gen5 software (Biotek). Each set of samples was pipetted in 4 replicates. […] A specific signal for each time point was calculated by subtracting the background signal (obtained in the absence of EPPIN) from its respective total signal. […] Non-specific interactions of compound with assay components were measured at the same time with the IgG detection kit ([…] biotinylated rabbit IgG) to generate the bead interaction: 10 μg/ml donor and acceptor beads. […]

[2] = EP012 plasma half-life in rats; assay type: in vivo; conditions: rat, iv, preliminary testing, 1 mg/kg i.v. bolus
Method: Preliminary half-life measurements for EP012 were carried out by Calvert Laboratories ([…]
The intravenous formulation was prepared by mixing an appropriate amount of EP012 (1 mg/kg) with an appropriate volume of intravenous vehicle (DMSO). The pH of the intravenous formulations was confirmed to be 7.4-7.6 and instilled through a syringe filter for sterilization prior to dosing. Three Sprague Dawley male rats (8-14 weeks; 300 to 325 g) were surgically implanted with a catheter in a jugular vein using polyurethane tubing and glycerol or dextrose solution as the lumen lock solution. The intravenous formulation was administered as a bolus injection into a lateral tail vein.
Serial blood samples (~0.30 mL each), were obtained from each animal via the jugular vein catheter at the following timepoints post-dose: 0.083, 0.167, 0.333, 0.5, 1, 2, 4, 8, 12, and 24 hours. Plasma (~125 µL per sample) was harvested following centrifugation of the chilled blood samples at 3000 RPM for 10 minutes at +4 °C. Derived plasma was transferred into prelabeled plastic vials and stored frozen at approximately -70 °C or lower until processing.
Sample preparation and LC-MS/MS analysis were done by OpAns LLC (Durham, NC). Plasma samples (both rat and macaque) were thawed at room temperature and processed by adding 160 µL of methanol (including 10 µL internal standard) to 25 µL of the sample. […]

[3] = test system: human sperm; test: CASA (Computer Assisted Sperm Analysis) assay of human sperm motility; assay type: cell-based; conditions: n = 4 donors, read-out: average relative motility index (RMI) IC50
Method: Human semen samples were obtained from the Department of Obstetrics and Gynecology, University of North Carolina Memorial Hospital, Chapel Hill, NC. […] Semen samples were allowed to liquefy for 30 minutes and subjected to standard semen analysis to determine acceptability before freezing. All samples were stored in liquid nitrogen, and de-identified by the Department of Obstetrics and Gynecology, University of North Carolina Memorial Hospital, Chapel Hill, NC before further processing. A density gradient (Isolate catalog number 99264, Irving Scientific, Irving CA, or SpermCare catalog number 2221 and 2222, InvitroCare Inc., Frederick MD) was used to prepare spermatozoa for further analysis. At least 3 independent experiments were done per assay, each using a single donor.
Computer Assisted Sperm Analysis (CASA) was conducted as previously described. Briefly sperm were washed after the density gradient with EP buffer-0.4% BSA and resuspended in modified M16 for compound treatments. Sperm were diluted to 5 x 10^6/mL in 12x75 mm glass tubes with the appropriate treatment and incubated at 37°C in 5% CO2. […] The relative mobility index (RMI) is a measure of the effect of compound on sperm and is calculated as the VSL x %normal motility and normalized to the appropriate DMSO control.

EPPIN, sequence (O95925 22-133): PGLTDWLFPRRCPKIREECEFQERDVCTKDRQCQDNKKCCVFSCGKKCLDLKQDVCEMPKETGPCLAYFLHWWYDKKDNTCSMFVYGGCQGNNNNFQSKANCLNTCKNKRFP

In the case of COC(=O)NNc1nc(Nc2ccc(NC(=O)OC)c(O)c2)nc(SCC(=O)O)n1 [EP012], the IC50 [1] is reported as 55.4 µM, the half-life [2] is reported as < 4 min and the IC50 [3] is reported as 33.4 µM.
